From patent US20120040966A1, “ANTI-VIRAL COMPOUNDS, TREATMENT, AND ASSAY” (priority 2008, published 2012)
Like-named read-outs stand apart in the source and are kept apart here.

What was measured:
[1] = system: influenza strain A/VN/1203/2004 (H5N1); assay: microbe, parasite or virus in culture; type: cell-based, Influenza A virus (H5N1)
[2] = system: Madin Darby Canine Kidney (MDCK) cells; assay: cells; type: cell-based; settings: Canis lupus familiaris, MDCK, read-out: IC50 (toxicity)
[3] = system: Influenza virus strain A/CA/04/2009 (H1N1); assay: organism not typed; type: cell-based; settings: MDCK, 72 h, read-out: H1N1 EC50 (@ 50% Via)
[4] = Influenza A virus, H5N1, MDCK, 72 h, read-out: H5N1 EC50 (@ 50% Via)
[5] = Influenza A virus, H5N1, MDCK, 72 h, read-out: H5N1 EC50 (Inf Pt)
[6] = read-out: H5N1 EC50 (@ 50% Via)

Compound | EC50 [1, 4] | IC50 [2] | EC50 [3] | EC50 [1, 5] | EC50 [1, 6] | EC50 ([1]; read-out: H5N1 EC50 (Inf Pt))
Cc1ccc(C2NC(=O)NC3=C2CCCc2ccccc23)cc1 (centres unmarked) [compound 22083] | 28 µM | > 50 µM | 9.5 µM |  |  | 
COc1ccc2c(c1)C1=C(CC2)C(c2ccc(C)cc2)NC(=O)N1 (centres unmarked) [compound 22087] | > 50 µM | > 50 µM | 47 µM |  |  | 
Cc1ccc(C2NC(=O)NC3=C2COc2ccccc23)cc1C (centres unmarked) [compound 22105] | 1.8 µM | > 50 µM | 14.9 µM | 1 µM | 2.7 µM | 1.9 µM
COc1cccc(C2NC(=O)NC3=C2COc2ccccc23)c1 (centres unmarked) [compound 22107] | > 50 µM | > 50 µM | 46 µM | > 50 µM |  | 
Cc1cccc(C2NC(=O)NC3=C2COc2ccccc23)c1 (centres unmarked) [compound 22109] |  | > 50 µM | > 50 µM |  |  | 
COc1cccc2c1CCC1=C2NC(=O)NC1c1ccc(C)c(C)c1 (centres unmarked) [compound 22113] |  | > 50 µM | 16.8 µM | 2.4 µM |  | 4.4 µM
O=C1NC2=C(CCc3ccccc32)C(c2ccc(C(F)(F)F)cc2)N1 (centres unmarked) [compound 22119] | 32.9 µM | > 50 µM | 11.7 µM | 14.8 µM |  | 
O=C1NC2=C(CCc3ccccc32)C(c2ccc3c(c2)OCO3)N1 (centres unmarked) [compound 22121] | 0.39 µM | 29.6 µM | > 50 µM | 0.34 µM |  | 0.22 µM
COc1cccc2c1CCC1=C2NC(=O)NC1c1ccc(C)cc1 (centres unmarked) [compound 22123] | 18.3 µM | > 50 µM | > 50 µM | 10.9 µM |  | 
COc1ccc(-c2nc(=O)[nH]c3c2CCc2ccccc2-3)cc1 [compound 22125] | 0.96 µM | > 50 µM | 24 µM | 0.92 µM | 1.62 µM | 1.45 µM
O=C1NC2=C(CCc3ccccc32)C(c2cccc([N+](=O)[O-])c2)N1 (centres unmarked) [compound 22347] | 5.5 µM | > 50 µM | > 50 µM | 4.2 µM |  | 
O=C1NC2=C(CCc3ccccc32)C(c2ccc([N+](=O)[O-])cc2)N1 (centres unmarked) [compound 22349] | 1.17 µM | > 50 µM | 17.7 µM | 0.95 µM |  | 
O=C1NC2=C(COc3ccccc32)C(c2ccc(Cl)c(Cl)c2)N1 (centres unmarked) [compound 22404] | 1.6 µM | > 50 µM | > 50 µM |  | 0.94 µM | 
COc1ccc(C2NC(=O)NC3=C2CCc2ccccc23)cc1Br (centres unmarked) [compound 22405] |  | > 50 µM | 0.425 µM |  |  | 
O=C1NC2=C(CCc3ccccc32)C(c2ccc(Cl)cc2Cl)N1 (centres unmarked) [compound 22406] | > 50 µM | > 50 µM | > 50 µM | > 50 µM |  | 
O=C1NC2=C(CCc3ccccc32)C(c2ccc(F)c(Br)c2)N1 (centres unmarked) [compound 22409] |  | > 50 µM | 1.4 µM |  |  | 
COc1ccc(C2NC(=O)NC3=C2CSc2ccccc23)cc1Br (centres unmarked) [compound 22412] |  | > 50 µM | 0.351 µM |  |  | 
O=C1NC2=C(C(c3ccc4c(c3)OCO4)N1)C(c1ccccc1)Oc1ccccc12 (centres unmarked) [compound 22421] | > 50 µM | > 50 µM | > 50 µM | > 50 µM |  | 
COc1ccc(C2NC(=O)NC3=C2CCc2ccccc23)cc1C (centres unmarked) [compound 22516] |  | > 50 µM | 10 µM |  |  | 
COc1cc(C2NC(=O)NC3=C2CCc2ccccc23)ccc1F (centres unmarked) [compound 22517] | 9.6 µM | > 50 µM | > 50 µM | 7.2 µM |  | 
CCOc1cccc(C2NC(=O)NC3=C2CCc2ccccc23)c1 (centres unmarked) [compound 22520] |  | > 50 µM | > 50 µM | 7.1 µM |  | 
COc1ccc(C2NC(=O)NC3=C2COc2ccccc23)cc1Br (centres unmarked) [compound 22521] |  | > 50 µM | 4 µM |  |  | 
COc1ccc(C2NC(=O)NC3=C2CCc2ccccc23)cc1F (centres unmarked) [compound 22522] | 0.26 µM | > 50 µM | 3.8 µM | 0.19 µM |  | 
COc1ccc(C2NC(=O)NC3=C2CCc2ccccc23)cc1OC (centres unmarked) [compound 22524] | 7.4 µM | > 50 µM | 39 µM | 7 µM |  | 
COc1ccc(C2NC(=O)NC3=C2CCc2c(C)cc(C)cc23)cc1Br (centres unmarked) [compound 22526] | > 48 µM | 6.9 µM | > 50 µM | > 48 µM |  | 
COc1ccc(C2NC(=O)NC3=C2CC(C)c2ccccc23)cc1Br (centres unmarked) [compound 22700] |  | > 48 µM | 0.0985 µM |  |  | 
